Measurements published in ChEMBL document CHEMBL1147792, “Functional organisation and gain of activity: the case of the antibacterial tetra-para-guanidinoethyl-calix[4]arene” (Bioorg Med Chem Lett, 2006).
Several values for one entry are separate records, joined by “and”; a condition that tells them apart may be missing. Equal entries are not always repeated. Activity calls are given as the source filed them. No cut-off for these calls is given here.

Legend:
[1] = tested on: Escherichia coli; assay: Antibacterial activity against Escherichia coli ATCC 25922 at 256 ug by disk diffusion method; format: functional
[2] = tested on: Pseudomonas aeruginosa; assay: Antibacterial activity against Pseudomonas aeruginosa ATCC 27853 at 256 ug by disk diffusion method; format: functional, organism-based
[3] = tested on: Staphylococcus aureus; assay: Antibacterial activity against Staphylococcus aureus ATCC 25923 at 256 ug by disk diffusion method; format: functional
[4] = tested on: Enterococcus faecalis; assay: Antibacterial activity against Enterococcus faecalis ATCC 29212 at 256 ug by disk diffusion method; format: functional, organism-based
[5] = tested on: Enterococcus faecalis; assay: Antibacterial activity against Enterococcus faecalis ATCC 29212 at 128 ug by disk diffusion method; format: functional, organism-based
[6] = tested on: Escherichia coli; assay: Antibacterial activity against Escherichia coli ATCC 25922 at 128 ug by disk diffusion method; format: functional, organism-based
[7] = tested on: Pseudomonas aeruginosa; assay: Antibacterial activity against Pseudomonas aeruginosa ATCC 27853 at 128 ug by disk diffusion method; format: functional, organism-based
[8] = tested on: Staphylococcus aureus; assay: Antibacterial activity against Staphylococcus aureus ATCC 25923 at 128 ug by disk diffusion method; format: functional, organism-based
[9] = tested on: Escherichia coli; assay: Antibacterial activity against Escherichia coli ATCC 25922 at 65 ug by disk diffusion method; format: functional, organism-based
[10] = tested on: Pseudomonas aeruginosa; assay: Antibacterial activity against Pseudomonas aeruginosa ATCC 27853 at 65 ug by disk diffusion method; format: functional, organism-based
[11] = tested on: Staphylococcus aureus; assay: Antibacterial activity against Staphylococcus aureus ATCC 25923 at 65 ug by disk diffusion method; format: functional, organism-based
[12] = tested on: Enterococcus faecalis; assay: Antibacterial activity against Enterococcus faecalis ATCC 29212 at 65 ug by disk diffusion method; format: functional, organism-based
[13] = tested on: Escherichia coli; assay: Antibacterial activity against Escherichia coli ATCC 25922 at 32 ug by disk diffusion method; format: functional, organism-based
[14] = tested on: Pseudomonas aeruginosa; assay: Antibacterial activity against Pseudomonas aeruginosa ATCC 27853 at 32 ug by disk diffusion method; format: functional, organism-based
[15] = tested on: Staphylococcus aureus; assay: Antibacterial activity against Staphylococcus aureus ATCC 25923 at 32 ug by disk diffusion method; format: functional, organism-based
[16] = tested on: Enterococcus faecalis; assay: Antibacterial activity against Enterococcus faecalis ATCC 29212 at 32 ug by disk diffusion method; format: functional, organism-based
[17] = tested on: Escherichia coli; assay: Antibacterial activity against Escherichia coli ATCC 25922; format: functional
[18] = tested on: Pseudomonas aeruginosa; assay: Antibacterial activity against Pseudomonas aeruginosa ATCC 27853; format: functional
[19] = tested on: Staphylococcus aureus; assay: Antibacterial activity against Staphylococcus aureus ATCC 25923; format: functional
[20] = tested on: Enterococcus faecalis; assay: Antibacterial activity against Enterococcus faecalis ATCC 29212; format: functional
[21] = tested on: MRC5; assay: Viability of human MRC5 cells after 48 hrs; format: functional, cell-based; conditions: MRC5, 48 h
[22] = tested on: MRC5; assay: Ratio of IC50 for viability of MRC5 cells after 48 hrs to MIC for Escherichia coli ATCC 25922; format: functional
[23] = tested on: MRC5; assay: Ratio of IC50 for viability of MRC5 cells after 48 to MIC for Pseudomonas aeruginosa ATCC 27853; format: functional
[24] = tested on: MRC5; assay: Ratio of IC50 for viability of MRC5 cells after 48 to MIC for Staphylococcus aureus ATCC 25923; format: functional
[25] = tested on: MRC5; assay: Ratio of IC50 for viability of MRC5 cells after 48 to MIC for Enterococcus faecalis ATCC 29212; format: functional
[26] = tested on: Escherichia coli; assay: Antibacterial activity against Escherichia coli ATCC 25922 against at 135 ug by disk diffusion method; format: functional
[27] = tested on: Escherichia coli; assay: Antibacterial activity against Escherichia coli ATCC 25922 at 67 ug by disk diffusion method; format: functional
[28] = tested on: Pseudomonas aeruginosa; assay: Antibacterial activity against Pseudomonas aeruginosa ATCC 27853 at 135 ug by disk diffusion method; format: functional, organism-based
[29] = tested on: Escherichia coli; assay: Antibacterial activity against Escherichia coli ATCC 25922 at 270 ug by disk diffusion method; format: functional
[30] = tested on: Pseudomonas aeruginosa; assay: Antibacterial activity against Pseudomonas aeruginosa ATCC 27853 at 270 ug by disk diffusion method; format: functional
[31] = tested on: Staphylococcus aureus; assay: Antibacterial activity against Staphylococcus aureus ATCC 25923 at 270 ug by disk diffusion method; format: functional
[32] = tested on: Enterococcus faecalis; assay: Antibacterial activity against Enterococcus faecalis ATCC 29212 at 270 ug by disk diffusion method; format: functional
[33] = tested on: Staphylococcus aureus; assay: Antibacterial activity against Staphylococcus aureus ATCC 25923 at 135 ug by disk diffusion method; format: functional
[34] = tested on: Enterococcus faecalis; assay: Antibacterial activity against Enterococcus faecalis ATCC 29212 at 135 ug by disk diffusion method; format: functional
[35] = tested on: Pseudomonas aeruginosa; assay: Antibacterial activity against Pseudomonas aeruginosa ATCC 27853 at 67 ug by disk diffusion method; format: functional, organism-based
[36] = tested on: Staphylococcus aureus; assay: Antibacterial activity against Staphylococcus aureus ATCC 25923 at 67 ug by disk diffusion method; format: functional
[37] = tested on: Enterococcus faecalis; assay: Antibacterial activity against Enterococcus faecalis ATCC 29212 at 67 ug by disk diffusion method; format: functional
[38] = tested on: Escherichia coli; assay: Antibacterial activity against Escherichia coli ATCC 25922 at 34 ug by disk diffusion method; format: functional, organism-based
[39] = tested on: Pseudomonas aeruginosa; assay: Antibacterial activity against Pseudomonas aeruginosa ATCC 27853 at 34 ug by disk diffusion method; format: functional, organism-based
[40] = tested on: Staphylococcus aureus; assay: Antibacterial activity against Staphylococcus aureus ATCC 25923 at 34 ug by disk diffusion method; format: functional
[41] = tested on: Enterococcus faecalis; assay: Antibacterial activity against Enterococcus faecalis ATCC 29212 at 34 ug by disk diffusion method; format: functional, organism-based

## N=C(N)NCCc1ccc(O)cc1.O=C(O)C(F)(F)F
[1]
  inhibition zone (IZ): 7.6 mm
[2]
  inhibition zone (IZ): inactive
[3]
  inhibition zone (IZ): 7.8 mm
[4]
  inhibition zone (IZ): inactive
[5]
  inhibition zone (IZ): inactive
[6]
  inhibition zone (IZ): inactive
[7]
  inhibition zone (IZ): inactive
[8]
  inhibition zone (IZ): inactive
[9]
  inhibition zone (IZ): inactive
[10]
  inhibition zone (IZ): inactive
[11]
  inhibition zone (IZ): inactive
[12]
  inhibition zone (IZ): inactive
[13]
  inhibition zone (IZ): inactive
[14]
  inhibition zone (IZ): inactive
[15]
  inhibition zone (IZ): inactive
[16]
  inhibition zone (IZ): inactive
[17]
  MIC: 512 µg/mL and 1750 µM
[18]
  MIC: 512 µg/mL and 1750 µM
[19]
  MIC: 512 µg/mL and 1750 µM
[20]
  MIC: ≥ 512 µg/mL and 1750 µM
[21]
  IC50: 850 µM
[22]
  Selectivity index: 0.48
[23]
  Selectivity index: 0.48
[24]
  Selectivity index: 0.48
[25]
  Selectivity index: <=0.48

## N=C(N)NCCc1cc2c(O)c(c1)Cc1cc(CCNC(=N)N)cc(c1O)Cc1cc(CCNC(=N)N)cc(c1O)Cc1cc(CCNC(=N)N)cc(c1O)C2.O=C(O)C(F)(F)F.O=C(O)C(F)(F)F.O=C(O)C(F)(F)F.O=C(O)C(F)(F)F
[26]
  inhibition zone (IZ): 9.3 mm
[27]
  inhibition zone (IZ): 7.3 mm
[28]
  inhibition zone (IZ): inactive
[29]
  inhibition zone (IZ): 11.2 mm
[30]
  inhibition zone (IZ): 7.8 mm
[31]
  inhibition zone (IZ): 11 mm
[32]
  inhibition zone (IZ): 10 mm
[33]
  inhibition zone (IZ): 9 mm
[34]
  inhibition zone (IZ): 8.3 mm
[35]
  inhibition zone (IZ): inactive
[36]
  inhibition zone (IZ): 8 mm
[37]
  inhibition zone (IZ): 6.6 mm
[38]
  inhibition zone (IZ): inactive
[39]
  inhibition zone (IZ): inactive
[40]
  inhibition zone (IZ): 6.3 mm
[41]
  inhibition zone (IZ): inactive
[17]
  MIC: 16 µg/mL and 13 µM
[18]
  MIC: 16 µg/mL and 13 µM
[19]
  MIC: 16 µg/mL and 13 µM
[20]
  MIC: 64 µg/mL and 51 µM
[21]
  IC50: 560 µM
[22]
  Selectivity index: 43
[23]
  Selectivity index: 43
[24]
  Selectivity index: 43
[25]
  Selectivity index: 11
